Laboratory results taken from ChEMBL document CHEMBL4419178, “Yap1 inhibitors that target the interaction of yap1 with oct4” (2018).
Values belong to the compound of their own block, whether it stands above or below them. The source made the active and inactive calls. The calls are words filed in the database; no cut-off is given here.

Experiments:
[1] = target: Transcriptional coactivator YAP1 (Homo sapiens) (UniProt P46937); assay: Inhibition of YAP1 in human A549 cells assessed as suppression of CCL2 level in presence of cancer associated fibroblasts by cytokine array assay; format: cell-based
Transcriptional coactivator YAP1 (Homo sapiens), sequence (P46937 whole entry): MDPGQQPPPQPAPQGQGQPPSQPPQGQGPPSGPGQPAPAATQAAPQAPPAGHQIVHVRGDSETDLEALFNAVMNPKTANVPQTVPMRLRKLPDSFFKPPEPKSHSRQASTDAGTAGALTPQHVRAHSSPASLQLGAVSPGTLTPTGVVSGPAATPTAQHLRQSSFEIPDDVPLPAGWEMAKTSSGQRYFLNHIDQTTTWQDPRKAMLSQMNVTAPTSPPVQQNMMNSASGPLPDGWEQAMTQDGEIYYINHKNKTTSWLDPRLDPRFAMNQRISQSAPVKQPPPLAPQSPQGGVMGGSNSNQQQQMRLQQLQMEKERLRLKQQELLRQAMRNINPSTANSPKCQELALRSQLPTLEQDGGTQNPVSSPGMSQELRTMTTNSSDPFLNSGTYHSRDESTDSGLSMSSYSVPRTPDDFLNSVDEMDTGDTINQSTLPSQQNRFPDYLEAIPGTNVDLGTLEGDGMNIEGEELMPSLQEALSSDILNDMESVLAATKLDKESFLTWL

[2] = target: Transcriptional coactivator YAP1 (Homo sapiens) (UniProt P46937); assay: Inhibition of YAP1 in human A549 cells assessed as suppression of IL1alpha level by cytokine array assay; format: cell-based
[3] = target: Transcriptional coactivator YAP1 (Homo sapiens) (UniProt P46937); assay: Inhibition of YAP1 in human A549 cells assessed as suppression of ICAM1 level in presence of cancer associated fibroblasts by cytokine array assay; format: cell-based
[4] = target: Transcriptional coactivator YAP1 (Homo sapiens) (UniProt P46937); assay: Inhibition of YAP1 in human A549 cells assessed as suppression of IL8 level by cytokine array assay; format: cell-based
[5] = target: Transcriptional coactivator YAP1 (Homo sapiens) (UniProt P46937); assay: Inhibition of YAP1 in human A549 cells assessed as suppression of IL8 level in presence of cancer associated fibroblasts by cytokine array assay; format: cell-based
[6] = target: Transcriptional coactivator YAP1 (Homo sapiens) (UniProt P46937); assay: Inhibition of YAP1 in human A549 cells assessed as suppression of MIF level in presence of cancer associated fibroblasts by cytokine array assay; format: cell-based
[7] = target: Transcriptional coactivator YAP1 (Homo sapiens) (UniProt P46937); assay: Inhibition of YAP1 in human A549 cells assessed as suppression of CXCL12 level in presence of cancer associated fibroblasts by cytokine array assay; format: cell-based
[8] = target: Transcriptional coactivator YAP1 (Homo sapiens) (UniProt P46937); assay: Inhibition of YAP1 in human A549 cells assessed as suppression of IL13 level by cytokine array assay; format: cell-based
[9] = target: Transcriptional coactivator YAP1 (Homo sapiens) (UniProt P46937); assay: Inhibition of YAP1 in human A549 cells assessed as suppression of CXCL1 level by cytokine array assay; format: cell-based
[10] = target: Transcriptional coactivator YAP1 (Homo sapiens) (UniProt P46937); assay: Inhibition of YAP1 in human A549 cells assessed as suppression of CXCL12 level by cytokine array assay; format: cell-based
[11] = target: Transcriptional coactivator YAP1 (Homo sapiens) (UniProt P46937); assay: Inhibition of YAP1 in human A549 cells assessed as suppression of IL6 level by cytokine array assay; format: cell-based
[12] = target: Transcriptional coactivator YAP1 (Homo sapiens) (UniProt P46937); assay: Inhibition of YAP1 in human A549 cells assessed as suppression of IL18 level by cytokine array assay; format: cell-based
[13] = target: Transcriptional coactivator YAP1 (Homo sapiens) (UniProt P46937); assay: Inhibition of YAP1 in human A549 cells assessed as suppression of IL32-alpha level by cytokine array assay; format: cell-based
[14] = target: Transcriptional coactivator YAP1 (Homo sapiens) (UniProt P46937); assay: Inhibition of YAP1 in human A549 cells assessed as suppression of Serpine-E1 level in presence of cancer associated fibroblasts by cytokine array assay; format: cell-based
[15] = target: Transcriptional coactivator YAP1 (Homo sapiens) (UniProt P46937); assay: Inhibition of YAP1 in human NCI-H1650 cells assessed as reduction in Sox2 protein expression at 5 uM by Western blot analysis; format: cell-based
[16] = target: Transcriptional coactivator YAP1 (Homo sapiens) (UniProt P46937); assay: Inhibition of YAP1 in human A549 cells assessed as suppression of Serpine-E1 level by cytokine array assay; format: cell-based
[17] = target: Transcriptional coactivator YAP1 (Homo sapiens) (UniProt P46937); assay: Inhibition of YAP1 in human A549 cells assessed as suppression of MIF level by cytokine array assay; format: cell-based
[18] = target: Transcriptional coactivator YAP1 (Homo sapiens) (UniProt P46937); assay: Inhibition of YAP1 in human A549 cells assessed as suppression of CD40L level by cytokine array assay; format: cell-based
[19] = target: Transcriptional coactivator YAP1 (Homo sapiens) (UniProt P46937); assay: Inhibition of YAP1 in human A549 cells assessed as suppression of CCL2 level by cytokine array assay; format: cell-based
[20] = target: Transcriptional coactivator YAP1 (Homo sapiens) (UniProt P46937); assay: Inhibition of YAP1 in human A549 cells assessed as reduction in Sox2 protein expression at 5 uM by Western blot analysis; format: cell-based
[21] = target: Transcriptional coactivator YAP1 (Homo sapiens) (UniProt P46937); assay: Inhibition of YAP1 in human A549 cells assessed as suppression of ICAM1 level by cytokine array assay; format: cell-based
[22] = target: Transcriptional coactivator YAP1 (Homo sapiens) (UniProt P46937); assay: Inhibition of YAP1 in human A549 cells assessed as suppression of IL6 level in presence of cancer associated fibroblasts by cytokine array assay; format: cell-based
[23] = target: Transcriptional coactivator YAP1 (Homo sapiens) (UniProt P46937); assay: Inhibition of YAP1 in human NCI-H1650 cells assessed as suppression of PD-L1 mRNA expression at 5 to 10 uM incubated for 72 hrs by RT-PCR method; format: cell-based
[24] = target: Transcriptional coactivator YAP1 (Homo sapiens) (UniProt P46937); assay: Inhibition of YAP1 in human NCI-H1650 cells assessed as suppression of PDK2 mRNA expression at 5 to 10 uM incubated for 72 hrs by RT-PCR method; format: cell-based
[25] = target: Transcriptional coactivator YAP1 (Homo sapiens) (UniProt P46937); assay: Inhibition of YAP1 in human NCI-H1703 cells assessed as suppression of HK2 mRNA expression at 5 to 10 uM incubated for 72 hrs by RT-PCR method; format: cell-based
[26] = target: Transcriptional coactivator YAP1 (Homo sapiens) (UniProt P46937); assay: Inhibition of YAP1 in human NCI-H146 cells assessed as suppression of PDK2 mRNA expression at 5 to 10 uM incubated for 72 hrs by RT-PCR method; format: cell-based
[27] = target: Transcriptional coactivator YAP1 (Homo sapiens) (UniProt P46937); assay: Inhibition of YAP1 in human NCI-H1650 cells assessed as suppression of HK2 mRNA expression at 5 to 10 uM incubated for 72 hrs by RT-PCR method; format: cell-based
[28] = target: Transcriptional coactivator YAP1 (Homo sapiens) (UniProt P46937); assay: Inhibition of YAP1 in human NCI-H146 cells assessed as suppression of HK2 mRNA expression at 5 to 10 uM incubated for 72 hrs by RT-PCR method; format: cell-based
[29] = target: Transcriptional coactivator YAP1 (Homo sapiens) (UniProt P46937); assay: Inhibition of YAP1 in human NCI-H1703 cells assessed as suppression of PD-L1 mRNA expression at 5 to 10 uM incubated for 72 hrs by RT-PCR method; format: cell-based
[30] = target: Transcriptional coactivator YAP1 (Homo sapiens) (UniProt P46937); assay: Inhibition of YAP1 in human NCI-H1703 cells assessed as suppression of PDK2 mRNA expression at 5 to 10 uM incubated for 72 hrs by RT-PCR method; format: cell-based
[31] = tested on: NCI-H1650; assay: Inhibition of self-renewal capacity in cisplatin insensitive stem-like side-population cells of human NCI-H1650 cells assessed as reduction in number of spheres at 2 uM incubated for 5 days after 7 days cisplatin exposure by sphere formation assay; format: functional, cell-based

inhibition [1]: Active | inhibition [2]: Active | inhibition [3]: Active | inhibition [4]: Active | inhibition [5]: Active | inhibition [6]: Active | inhibition [7]: Active | inhibition [8]: Active | inhibition [9]: Active | inhibition [10]: Active | inhibition [11]: Active | inhibition [12]: Active | inhibition [13]: Active | inhibition [14]: Active | inhibition [15]: Active | inhibition [16]: Active | inhibition [17]: Active | inhibition [18]: Active | inhibition [19]: Active | inhibition [20]: Active | inhibition [21]: Active | inhibition [22]: Active
Compound: COC(=O)[C@H](Cc1ccc(OCc2ccccc2)cc1)NC(=O)CC1CCN(C(=O)CCc2ccc(C#N)cc2)CC1

inhibition [23]: Active | inhibition [24]: Active | inhibition [25]: Active | inhibition [26]: Active | inhibition [27]: Active | inhibition [28]: Active | inhibition [29]: Active | inhibition [30]: Active
Compound: COC(=O)[C@H](Cc1ccc(OCc2ccccc2)cc1)NC(=O)CC1CCN(C(=O)CCc2ccc(Cl)c(Cl)c2)CC1
inhibition [31]: Active
